What was measured:
[1] = Body weight, food intake and water intake during alcohol-induced hepatotoxicity study (Example III); type: in vivo, Swiss Albino mice; conditions: for change in body weight / change in food intake / change in water intake: 10 mg/kg p.o. + alcohol, 15 days; for body weight / food intake / water intake: 10 mg/kg p.o. + alcohol 5 g/kg p.o. twice daily, mean ± SD
Protocol: (§1) Swiss Albino male and female mice weighing approximately 30±5 g, 2 month old mice were obtained from National Research Institute of Ayurveda for Drug Development (Govt. of India), Kolkata, and were housed in polypropylene cages at 22±3° C., relative air humidity of 45 to 55%, with 12.00 hr light & dark cycle (lighting on from 6:00 AM to 6:00 PM). Mice were provided a standard pellet chow diet (carbohydrate 65.5%, protein 17.6%, fat 6.6%) and distilled water ad libitum. The mice were acclimatized for one week in the laboratory conditions, before being used in the experiment. All experiments were conducted between 10.00 hr and 14.00 hr. Principles of laboratory animals care (NIH publication no. 85-23, revised 1985) were followed.
(§2) Vehicle control animals (“Con Veh”) were administered 0.3% CMC orally for 15 days.
(§3) Animals receiving ethanol (“Alc+0.3 CMC”, “3-OH-DBP+Alc”, “3,8-(OH)2-DBP+Alc”) were administered ethanol in 0.3% CMC orally as discussed above.
(§4) Results were expressed in terms of mean±SD (n=8). The data were subjected to one way ANOVA followed by Tukey's test using GraphPad Prism 4.0 software to establish statistical significance (*p<0.05, **p<0.01, ***p<0.001 vs. vehicle control; # p<0.05, ## p<0.01, ### p<0.001 vs. animals administered ethanol only).

[2] = test system: alcohol-induced hepatotoxicity in mice; test: Alcohol (ethanol)-induced hepatotoxicity in mice, biochemical and physical parameters (Example III); type: in vivo, Swiss Albino mice; conditions: for Relative organ weight (w.r.t body weight) Kidney / Relative organ weight (w.r.t body weight) Liver / ACP / ALP / ALT(SGPT) / AST(SGOT) / Total Protein: 10 mg/kg p.o. + alcohol 5 g/kg p.o. twice daily, mean ± SD; for ACP / ALP / ALT(SGPT) / AST(SGOT) / Total Protein: plasma
Protocol: as §1
In the present study simultaneous administration of alcohol (ethanol) and treatment with 3-OH-DBP and 3,8-(OH)2-DBP was done.
as §2, §3, §4

[3] = test system: alcohol-induced hepatotoxicity in mice; test: Synergistic hepatoprotective activity of DBPs against alcohol-induced hepatotoxicity (Example IV); conditions: for ACP / ALP / ALT / AST / Total Protein: alcohol 5 g/kg, mean ± SEM, n=4
Protocol: Hepatotoxicity was induced by oral administration of alcohol (ethanol: 5 g/kg) from stock 400 mg/ml twice daily for 15 days.
3-OH-DBP and 3,8-(OH)2-DBP were each separately suspended in 0.3% CMC and administered at a dose of 10 mg/kg body weight per orally for 15 days. During the 15 days treatment, body weight, food intake, and water intake were monitored at regular intervals. Following 15 days of treatment physical parameters (relative organ weight) and biochemical parameters (plasma total protein content, ALT, AST, ALP, and ACP) were studied.
3-OH-DBP (2 mg/kg body weight, 10 mg/kg body weight);
3,8-(OH)2-DBP (10 mg/kg body weight, 50 mg/kg body weight); and

[4] = test system: paracetamol-induced hepatotoxicity in mice; test: Synergistic hepatoprotective activity of DBPs against paracetamol-induced hepatotoxicity (Example IV); type: in vivo; conditions: for ACP / ALP / ALT / AST / Total Protein: paracetamol 200 mg/kg, mean ± SEM, n=4
[5] = female mice (Table 14), 10 mg/kg p.o.
[6] = male mice (Table 13), 10 mg/kg p.o.
[7] = female mice, doses 3-OH-DBP 2, 3,8-(OH)2-DBP 10, combination 12 mg/kg b.w.
[8] = male mice, doses 3-OH-DBP 2, 3,8-(OH)2-DBP 10, 1:5 combination 12 mg/kg b.w.
[9] = male mice, doses 3-OH-DBP 10, 3,8-(OH)2-DBP 50, 1:5 combination 60 mg/kg b.w.
[10] = female mice, doses 3-OH-DBP 2, 3,8-(OH)2-DBP 10, 1:5 combination 12 mg/kg b.w.
[11] = female mice, doses 3-OH-DBP 10, 3,8-(OH)2-DBP 50, 1:5 combination 60 mg/kg b.w.

Compound: O=c1oc2cc(O)ccc2c2ccc(O)cc12 [3,8-(OH)2-DBP, 3,8-dihydroxy-dibenzo-alpha-pyrone]
- change in body weight ([1]; female mice): No significant change
- change in food intake ([1]; female mice): No significant change
- change in water intake ([1]; female mice): No significant change
- body weight ([1]; female mice, Day 0): 25.17 ± 2.32 gm
- food intake ([1]; female mice, Day 0): 8.52 ± 0.30 gm
- water intake ([1]; female mice, Day 0): 4 ± 0.28 mL
- body weight ([1]; female mice, Day 5): 23.5 ± 3.02 gm
- food intake ([1]; female mice, Day 5): 8.78 ± 1.02 gm
- water intake ([1]; female mice, Day 5): 4.01 ± 0.26 mL
- body weight ([1]; female mice, Day 10): 23.67 ± 3.07 gm
- food intake ([1]; female mice, Day 10): 16.44 ± 0.47 gm
- water intake ([1]; female mice, Day 10): 2.32 ± 0.46 mL
- body weight ([1]; female mice, Day 15): 22.83 ± 2.78 gm
- food intake ([1]; female mice, Day 15): 16.12 ± 0.66 gm
- water intake ([1]; female mice, Day 15): 2.15 ± 0.44 mL
- change in body weight ([1]; male mice): No significant change
- change in food intake ([1]; male mice): No significant change
- change in water intake ([1]; male mice): No significant change
- body weight ([1]; male mice, Day 0): 29.17 ± 2.79 gm
- food intake ([1]; male mice, Day 0): 17.01 ± 0.75 gm
- water intake ([1]; male mice, Day 0): 4.92 ± 0.45 mL
- body weight ([1]; male mice, Day 5): 25 ± 3.29 gm
- food intake ([1]; male mice, Day 5): 17.18 ± 0.85 gm
- water intake ([1]; male mice, Day 5): 5.07 ± 0.61 mL
- body weight ([1]; male mice, Day 10): 25.67 ± 2.66 gm
- food intake ([1]; male mice, Day 10): 17.21 ± 1.11 gm
- water intake ([1]; male mice, Day 10): 2.32 ± 0.31 mL
- body weight ([1]; male mice, Day 15): 24.8 ± 2.93 gm
- food intake ([1]; male mice, Day 15): 17.23 ± 1.16 gm
- water intake ([1]; male mice, Day 15): 2.27 ± 0.33 mL
- hepatoprotective activity against alcohol-induced hepatotoxicity ([2]; 10 mg/kg p.o., 15 days): significant hepatoprotective activity
- effect on alcohol-induced increased plasma ACP [2, 5]: significantly (p<0.05) attenuated
- effect on alcohol-induced increased plasma ALT [2, 5]: significantly (p<0.001) attenuated
- effect on alcohol-induced increased plasma AST [2, 5]: significantly (p<0.05; p<0.01) attenuated
- effect on plasma ALP level compared with ALC group [2, 5]: did not show significant (p>0.05) change
- Relative organ weight (w.r.t body weight) Kidney ([2]; female mice, 15 days): 0.012 ± 0.001
- Relative organ weight (w.r.t body weight) Liver ([2]; female mice, 15 days): 0.048 ± 0.001
- ACP ([2]; female mice, 15 days): 4.31 ± 2.84^## IU/L
- ALP ([2]; female mice, 15 days): 43.12 ± 5.84 IU/L
- ALT(SGPT) ([2]; female mice, 15 days): 6.72 ± 0.727^## IU/L
- AST(SGOT) ([2]; female mice, 15 days): 3.62 ± 1.27^## IU/L
- Total Protein ([2]; female mice, 15 days): 3.229 ± 0.187 g/dL
- effect on alcohol-induced increased plasma ACP [2, 6]: significantly (p<0.05) attenuated
- effect on alcohol-induced increased plasma ALT [2, 6]: significantly (p<0.05) attenuated
- effect on alcohol-induced increased plasma AST [2, 6]: significantly (p<0.05) attenuated
- Relative organ weight (w.r.t body weight) Kidney ([2]; male mice, 15 days): 0.016 ± 0.002
- Relative organ weight (w.r.t body weight) Liver ([2]; male mice, 15 days): 0.044 ± 0.005
- ACP ([2]; male mice, 15 days): 4.29 ± 1.22^## IU/L
- ALP ([2]; male mice, 15 days): 27.39 ± 6.15 ^ IU/L
- ALT(SGPT) ([2]; male mice, 15 days): 9.98 ± 3.44^# IU/L
- AST(SGOT) ([2]; male mice, 15 days): 4.51 ± 1.80^# IU/L
- Total Protein ([2]; male mice, 15 days): 3.229 ± 0.187^ g/dl
- hepatoprotective activity (conclusion, Tables 17 and 18) ([3]; alcohol-induced hepatotoxicity, male and female mice): hepatoprotective activity in a dose dependent manner
- ACP [3, 7]: 15.6 ± 0.99 U/L
- ALP [3, 7]: 84 ± 6.5 (c) IU/L
- ALT [3, 7]: 45.80 ± 5.76 (c)^ IU/L
- AST [3, 7]: 64.09 ± 7.34 (c)^ IU/L
- Total Protein [3, 7]: 6.53 ± 0.10 g/dL
- Relative liver weight ([3]; female mice, alcohol study of Example IV): significantly decreased
- ACP, difference in values from alcohol treated mice [3, 7]: (c) B = (a-c = 5.67) U/L
- ALP, difference in values from alcohol treated mice [3, 7]: B = (a-c = 55.35) IU/L
- ALT, difference in values from alcohol treated mice [3, 7]: B = (a-c = 43.04) IU/L
- AST, difference in values from alcohol treated mice [3, 7]: B = (a-c = 4.9) IU/L
- ACP [3, 8]: 11.2 ± 1.44 (c) U/L
- ALP [3, 8]: 88.1 ± 15.8 (c) IU/L
- ALT [3, 8]: 53.9 ± 3.99 (c) IU/L
- AST [3, 8]: 25.6 ± 3.10 (c) IU/L
- Total Protein [3, 8]: 7.65 ± 0.34 g/dL
- ACP [3, 9]: 9.19 ± 0.71 (f)^ U/L
- ALP [3, 9]: 78 ± 7.21 (f) IU/L
- ALT [3, 9]: 64.3 ± 2(f) ^ IU/L
- AST [3, 9]: 24.8 ± 2.19 (f) IU/L
- Total Protein [3, 9]: 8.60 ± 0.35 g/dL
- ACP, difference in values from alcohol treated mice [3, 8]: B = (a-c = 7.4) U/L
- ALP, difference in values from alcohol treated mice [3, 8]: B = (a-c = 45.9) IU/L
- ALT, difference in values from alcohol treated mice [3, 8]: B = (a-c = 52.1) IU/L
- AST, difference in values from alcohol treated mice [3, 8]: B = (a-c = 35.1) IU/L
- ACP, difference in values from alcohol treated mice [3, 9]: E = (a-f = 9.41) U/L
- ALP, difference in values from alcohol treated mice [3, 9]: E = (a-f = 56) IU/L
- ALT, difference in values from alcohol treated mice [3, 9]: E = (a-f = 41.7) IU/L
- AST, difference in values from alcohol treated mice [3, 9]: E = (a-f = 35.9) IU/L
- ACP, difference in values from paracetamol treated mice [4, 10]: B = (a-c = 4) U/L
- ALP, difference in values from paracetamol treated mice [4, 10]: D = (a-c = 53) IU/L
- ALT, difference in values from paracetamol treated mice [4, 10]: B = (a-c = 39) IU/L
- AST, difference in values from paracetamol treated mice [4, 10]: B = (a-c = 64) IU/L
- ACP, difference in values from paracetamol treated mice [4, 11]: E = (a-f = 5) U/L
- ALP, difference in values from paracetamol treated mice [4, 11]: E = (a-f = 48) IU/L
- ALT, difference in values from paracetamol treated mice [4, 11]: E = (a-f = 43) IU/L
- AST, difference in values from paracetamol treated mice [4, 11]: E = (a-f = 77) IU/L
- ACP [4, 10]: 12 ± 0.63^##(c) U/L
- ALP [4, 10]: 45 ± 7.9^##(c) IU/L
- ALT [4, 10]: 47 ± 12 (c) IU/L
- AST [4, 10]: 79 ± 11*,^#(c) IU/L
- Total Protein [4, 10]: 6.7 ± 0.02 g/dL
- ACP [4, 11]: 11 ± 0.41^#(f) U/L
- ALP [4, 11]: 50 ± 11^#(f)^ IU/L
- ALT [4, 11]: 43 ± 2.5^##(f) IU/L
- AST [4, 11]: 66 ± 11*,^#(f) IU/L
- Total Protein [4, 11]: 5.8 ± 0.30 g/dL
- Relative liver weight ([4]; male and female mice, paracetamol study of Example IV): significantly (p<0.01) increased
- ACP, difference in values from paracetamol treated mice [4, 8]: B = (a-c = 6.13) U/L
- ALP, difference in values from paracetamol treated mice [4, 8]: B = (a-c = 50.87) IU/L
- ALT, difference in values from paracetamol treated mice [4, 8]: B = (a-c = 18.35) IU/L
- AST, difference in values from paracetamol treated mice [4, 8]: B = (a-c = 33.82) IU/L
- ACP, difference in values from paracetamol treated mice [4, 9]: E = (a-f = 10.56) U/L
- ALP, difference in values from paracetamol treated mice [4, 9]: E = (a-f = 48.85) IU/L
- ALT, difference in values from paracetamol treated mice [4, 9]: E = (a-f = 20.56) IU/L
- AST, difference in values from paracetamol treated mice [4, 9]: E = (a-f = 46.36) IU/L
- ACP [4, 8]: 12.06 ± 0.43 (c) U/L
- ALP [4, 8]: 77.63 ± 6.81 (c) IU/L
- ALT [4, 8]: 49.28 ± 7.23 (c) IU/L
- AST [4, 8]: 68.23 ± 4.96^###(c) IU/L
- Total Protein [4, 8]: 6.97 ± 0.12 g/dL
- ACP [4, 9]: 7.63 ± 0.45^##(f) ^ U/L
- ALP [4, 9]: 79.67 ± 10.18^###(f) IU/L
- ALT [4, 9]: 47.07 ± 6.69^#(f) ^ IU/L
- AST [4, 9]: 55.69 ± 5.37^###(f) IU/L
- Total Protein [4, 9]: 6.98 ± 0.12 g/dL
- hepatoprotective activity (conclusion, Tables 15 and 16) ([4]; paracetamol-induced hepatotoxicity, male and female mice): hepatoprotective activity in a dose dependent manner

Source: patent US20220071952A1, “METHODS OF TREATING AND PREVENTING HEPATOTOXICITY” (Natreon, Inc., priority 2020, published 2022)
